How the values were obtained:
[1] = Bioavailability of TAC in vivo in roosters (plasma free tocopherol after force-feeding); set-up: species or system ISA Brown roosters; AUC 24 h (Room 1) / AUC 96 h (Room 1) / AUC 24 h (Room 2) / AUC 96 h (Room 2): concentration or dose not given beside the values; conditions: for AUC 24 h (Room 1) / AUC 96 h (Room 1): Room 1, force-feeding; for AUC 24 h (Room 2) / AUC 96 h (Room 2): Room 2, force-feeding
From the text: The experimental scheme is described in detail in Preveraud et al. 2015, British Poultry Science, 56: 1; 94-102.
Briefly, two rooms with 60 ISA Brown roosters are placed in individual cages. One week before assigning the treatments, the roosters are fed with a feed devoid of vitamin E.
The roosters (n=10 roosters per treatment) were force-fed with different TAC solutions in water.
Room 1: Dry nanocapsules C24 of example 1, • TOL and TAC, in the form of oil, as a blank
Room 2: C40 dry nanocapsules of example 1, • TOL and TAC, in the form of oil, as a blank.
After the force-feeding administration of the vitamin E products put in a capsule, blood samples were taken at 0, 6, 12, 24, 48 and 96 h post force-feeding. After centrifugation, the plasma is decanted and the free tocopherol is measured up by HPLC.

[2] = oral administration, native vitamin E; cited from earlier work

Compound	AUC 24 h (Room 1) [1]	AUC 96 h (Room 1) [1]	AUC 24 h (Room 2) [1]	AUC 96 h (Room 2) [1]	Bioavailability in animals when orally administered [2]	%/TAC 24 h (Room 1) ([1]; Room 1, 24 h, diffusion percentage relative to TAC)	%/TAC 96 h (Room 1) ([1]; Room 1, 96 h, diffusion percentage relative to TAC)	%/TAC 24 h (Room 2) ([1]; Room 2, 24 h, diffusion percentage relative to TAC)	%/TAC 96 h (Room 2) ([1]; Room 2, 96 h, diffusion percentage relative to TAC)
CC(=O)Oc1c(C)c(C)c2c(c1C)CCC(C)(CCC[C@H](C)CCC[C@H](C)CCCC(C)C)O2 (stereo partly drawn) [TAC, alpha-tocopherol acetate]	206 µg/mL/h	597 µg/mL/h	142 µg/mL/h	340 µg/mL/h					
tocopherol [TOL]	307 µg/mL/h	1193 µg/mL/h	309 µg/mL/h	320 µg/mL/h	≤ 50%	+49%	+100%	+118%	+124%

— US10765639B2, “Nanocapsules, methods of manufacture and uses thereof” (ADISSEO FRANCE S.A.S., priority 2016, dated 2020)
